Key:
Test in all cases: relative viability (nuclei count vs DMSO), 5 days (fraction); higher = more cells survive
COR-L23 = tested on: COR-L23
Outline: (§1)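 After 5 days of treatment, lung cancer cells in 1536-well plates were fixed and stained in a single step (final 0.05% Triton X-100, 1% formaldehyde, 1 ug/ml Hoechst) and their nuclei counted on 4× images. Treatment had been applied by pin tool the day after seeding as one drug alone or as a fixed anchor-drug dose with five library-drug doses (not always all listed) in √10 steps. Relative viability is the nuclei count of treated wells divided by that of vehicle wells, and values are medians of duplicate plates.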

ChaGo-K-1 = tested on: ChaGo-K-1
Outline: as §1

EMC-BAC-2 = tested on: EMC-BAC-2
Outline: as §1

EPLC-272H = tested on: EPLC-272H
Outline: as §1

H3255 = tested on: H3255
Outline: as §1

HCC-44 = tested on: HCC-44
Outline: as §1

HCC-827 = tested on: HCC-827
Outline: as §1

LCLC-103H = tested on: LCLC-103H
Outline: as §1

LU99A = tested on: LU99A
Outline: as §1

NCI-H1395 = tested on: NCI-H1395
Outline: as §1

NCI-H1651 = tested on: NCI-H1651
Outline: as §1

NCI-H1793 = tested on: NCI-H1793
Outline: as §1

NCI-H1944 = tested on: NCI-H1944
Outline: as §1

NCI-H2023 = tested on: NCI-H2023
Outline: as §1

NCI-H2085 = tested on: NCI-H2085
Outline: as §1

NCI-H2087 = tested on: NCI-H2087
Outline: as §1

NCI-H2405 = tested on: NCI-H2405
Outline: as §1

NCI-H520 = tested on: NCI-H520
Outline: as §1

NCI-H650 = tested on: NCI-H650
Outline: as §1

NCI-H838 = tested on: NCI-H838
Outline: as §1

SK-MES-1 = tested on: SK-MES-1
Outline: as §1

`O=c1cc(-c2cccc3c2Sc2ccccc2S3)oc(N2CCOCC2)c1` + CC(=O)Nc1cccc(-n2c(=O)n(C3CC3)c(=O)c3c(Nc4ccc(I)cc4F)n(C)c(=O)c(C)c32)c1 [Trametinib] (partner 0.02 µM) gave a relative viability (COR-L23; first compound 0.08 µM) of 0.593, a relative viability (COR-L23; first compound 0.253 µM) of 0.689 and a relative viability (COR-L23; first compound 0.8 µM) of 0.51. For the same compound, the relative viability (COR-L23; first compound 2.53 µM) was 0.592, the relative viability (COR-L23; first compound 8 µM) was 0.689 and the relative viability (ChaGo-K-1; first compound 0.08 µM) was 0.862. The relative viability (ChaGo-K-1; first compound 0.253 µM) was 0.935, the relative viability (ChaGo-K-1; first compound 0.8 µM) was 0.894 and the relative viability (ChaGo-K-1; first compound 2.53 µM) was 0.908. It also gave a relative viability (ChaGo-K-1; first compound 8 µM) of 0.955, a relative viability (EMC-BAC-2; first compound 0.08 µM) of 0.804 and a relative viability (EMC-BAC-2; first compound 0.253 µM) of 1.04. The relative viability (EMC-BAC-2; first compound 0.8 µM) was 0.842, the relative viability (EMC-BAC-2; first compound 2.53 µM) was 0.908 and the relative viability (EMC-BAC-2; first compound 8 µM) was 0.895. The relative viability (EPLC-272H; first compound 0.08 µM) was 0.254, the relative viability (EPLC-272H; first compound 0.253 µM) was 0.293 and the relative viability (EPLC-272H; first compound 0.8 µM) was 0.238. For the same compound, the relative viability (EPLC-272H; first compound 2.53 µM) was 0.28, the relative viability (EPLC-272H; first compound 8 µM) was 0.28 and the relative viability (H3255; first compound 0.08 µM) was 0.725. The relative viability (H3255; first compound 0.253 µM) was 0.588, the relative viability (H3255; first compound 0.8 µM) was 0.681 and the relative viability (H3255; first compound 2.53 µM) was 0.543. The relative viability (H3255; first compound 8 µM) was 0.561, the relative viability (HCC-44; first compound 0.08 µM) was 0.993 and the relative viability (HCC-44; first compound 0.253 µM) was 1.01. The relative viability (HCC-44; first compound 0.8 µM) was 0.985, the relative viability (HCC-44; first compound 2.53 µM) was 1.01 and the relative viability (HCC-44; first compound 8 µM) was 1.07. It also gave a relative viability (HCC-827; first compound 0.08 µM) of 0.508, a relative viability (HCC-827; first compound 0.253 µM) of 0.563 and a relative viability (HCC-827; first compound 0.8 µM) of 0.537. The relative viability (HCC-827; first compound 2.53 µM) was 0.427, the relative viability (HCC-827; first compound 8 µM) was 0.544 and the relative viability (LCLC-103H; first compound 0.08 µM) was 0.698. For the same compound, the relative viability (LCLC-103H; first compound 0.253 µM) was 0.713, the relative viability (LCLC-103H; first compound 0.8 µM) was 0.631 and the relative viability (LCLC-103H; first compound 2.53 µM) was 0.662. For the same compound, the relative viability (LCLC-103H; first compound 8 µM) was 0.623, the relative viability (LU99A; first compound 0.08 µM) was 0.531 and the relative viability (LU99A; first compound 0.253 µM) was 0.624. For the same compound, the relative viability (LU99A; first compound 0.8 µM) was 0.553, the relative viability (LU99A; first compound 2.53 µM) was 0.538 and the relative viability (LU99A; first compound 8 µM) was 0.52. It also gave a relative viability (NCI-H1395; first compound 0.08 µM) of 0.883, a relative viability (NCI-H1395; first compound 0.253 µM) of 1.05 and a relative viability (NCI-H1395; first compound 0.8 µM) of 1.14. For the same compound, the relative viability (NCI-H1395; first compound 2.53 µM) was 0.964, the relative viability (NCI-H1395; first compound 8 µM) was 1.06 and the relative viability (NCI-H1651; first compound 0.08 µM) was 0.906. It also gave a relative viability (NCI-H1651; first compound 0.253 µM) of 0.709, a relative viability (NCI-H1651; first compound 0.8 µM) of 0.843 and a relative viability (NCI-H1651; first compound 2.53 µM) of 0.803. It also gave a relative viability (NCI-H1651; first compound 8 µM) of 0.832, a relative viability (NCI-H1793; first compound 0.08 µM) of 0.262 and a relative viability (NCI-H1793; first compound 0.253 µM) of 0.458. For the same compound, the relative viability (NCI-H1793; first compound 0.8 µM) was 0.448, the relative viability (NCI-H1793; first compound 2.53 µM) was 0.376 and the relative viability (NCI-H1793; first compound 8 µM) was 0.346. The relative viability (NCI-H1944; first compound 0.08 µM) was 0.365, the relative viability (NCI-H1944; first compound 0.253 µM) was 0.414 and the relative viability (NCI-H1944; first compound 0.8 µM) was 0.396. It also gave a relative viability (NCI-H1944; first compound 2.53 µM) of 0.428, a relative viability (NCI-H1944; first compound 8 µM) of 0.428 and a relative viability (NCI-H2023; first compound 0.08 µM) of 0.564. For the same compound, the relative viability (NCI-H2023; first compound 0.253 µM) was 0.647, the relative viability (NCI-H2023; first compound 0.8 µM) was 0.6 and the relative viability (NCI-H2023; first compound 2.53 µM) was 0.534. It also gave a relative viability (NCI-H2023; first compound 8 µM) of 0.426, a relative viability (NCI-H2085; first compound 0.08 µM) of 0.526 and a relative viability (NCI-H2085; first compound 0.253 µM) of 0.573. For the same compound, the relative viability (NCI-H2085; first compound 0.8 µM) was 0.441, the relative viability (NCI-H2085; first compound 2.53 µM) was 0.401 and the relative viability (NCI-H2085; first compound 8 µM) was 0.446. For the same compound, the relative viability (NCI-H2087; first compound 0.08 µM) was 0.143, the relative viability (NCI-H2087; first compound 0.253 µM) was 0.212 and the relative viability (NCI-H2087; first compound 0.8 µM) was 0.172. It also gave a relative viability (NCI-H2087; first compound 2.53 µM) of 0.172, a relative viability (NCI-H2087; first compound 8 µM) of 0.179 and a relative viability (NCI-H2405; first compound 0.08 µM) of 0.589. It also gave a relative viability (NCI-H2405; first compound 0.253 µM) of 0.673, a relative viability (NCI-H2405; first compound 0.8 µM) of 0.599 and a relative viability (NCI-H2405; first compound 2.53 µM) of 0.534. The relative viability (NCI-H2405; first compound 8 µM) was 0.577, the relative viability (NCI-H520; first compound 0.08 µM) was 0.566 and the relative viability (NCI-H520; first compound 0.253 µM) was 0.741. It also gave a relative viability (NCI-H520; first compound 0.8 µM) of 0.78, a relative viability (NCI-H520; first compound 2.53 µM) of 0.776 and a relative viability (NCI-H520; first compound 8 µM) of 0.637. It also gave a relative viability (NCI-H650; first compound 0.08 µM) of 0.994, a relative viability (NCI-H650; first compound 0.253 µM) of 1.03 and a relative viability (NCI-H650; first compound 0.8 µM) of 0.959. The relative viability (NCI-H650; first compound 2.53 µM) was 0.901, the relative viability (NCI-H650; first compound 8 µM) was 0.977 and the relative viability (NCI-H838; first compound 0.08 µM) was 0.462. The relative viability (NCI-H838; first compound 0.253 µM) was 0.673, the relative viability (NCI-H838; first compound 0.8 µM) was 0.49 and the relative viability (NCI-H838; first compound 2.53 µM) was 0.502. It also gave a relative viability (NCI-H838; first compound 8 µM) of 0.47, a relative viability (SK-MES-1; first compound 0.08 µM) of 0.543 and a relative viability (SK-MES-1; first compound 0.253 µM) of 0.579. It also gave a relative viability (SK-MES-1; first compound 0.8 µM) of 0.448, a relative viability (SK-MES-1; first compound 2.53 µM) of 0.481 and a relative viability (SK-MES-1; first compound 8 µM) of 0.379.
